Results on 2 compounds are retold here after patent US4307194A, “Inhibitors, obtained from bacilli, for glycoside hydrolases” (Bayer Aktiengesellschaft, priority 1976, dated 1981).

Assay [1] has as its target T1, saccharase from swine small intestine mucosa (Sus scrofa, UniProt P56729).
T1 construct: sucrase subunit cut from the sucrase-isomaltase precursor
The experiment in a line: Saccharase test (saccharase inhibitor units, SIU). It counts as biochemical. Particulars: solid product.
Experimental: A saccharase inhibitor unit (SIU) is defined as the amount of inhibitor which inhibits two saccharase units to the extent of 50%. A saccharase unit (SU) is the amount of enzyme which, under the test conditions indicated below, splits 1 μmol of sucrose into glucose and fructose in one minute. The μmols of glucose formed are determined quantitatively with the aid of the glucose oxidase reaction under conditions under which further splitting of sucrose by saccharase no longer takes place. In order to carry out the test, 1-20 μg of inhibitor, or 1-20 μl of the solution to be tested, are added to 0.05 ml of saccharase solution adjusted to a content of 0.12 SU and the mixture is made up to 0.1 ml with 0.1 M sodium maleate buffer of pH 6.0. Suitably, a solubilised saccharase from swine small intestine mucosa according to B. Borgstrom, A. Dahlquist, Acta Chem. Scand. […] The mixture is equilibrated at 35° C. for 10 minutes and 0.1 ml of a 0.05 M sucrose solution in 0.1 M sodium maleate buffer of pH 6.0, prewarmed to 35° C., is then added. The mixture is incubated at 35° C. for 20 minutes and the saccharase reaction is stopped by adding 1 ml of glucose oxidase reagent and the mixture is incubated for a further 30 minutes at 35° C. […] 1 ml of 50% strength H2 SO4 is then added and the mixture is measured at 545 nm against a corresponding blank value. […]

The subject of another assay is microbial α-glucosidases. Particulars: T. NIWA et al. Agr. Biol. Chem. 34, 966; cited from earlier work.

Molecules are shown by their SMILES.

T1 sequence (P56729 with tags, fused parts or gaps): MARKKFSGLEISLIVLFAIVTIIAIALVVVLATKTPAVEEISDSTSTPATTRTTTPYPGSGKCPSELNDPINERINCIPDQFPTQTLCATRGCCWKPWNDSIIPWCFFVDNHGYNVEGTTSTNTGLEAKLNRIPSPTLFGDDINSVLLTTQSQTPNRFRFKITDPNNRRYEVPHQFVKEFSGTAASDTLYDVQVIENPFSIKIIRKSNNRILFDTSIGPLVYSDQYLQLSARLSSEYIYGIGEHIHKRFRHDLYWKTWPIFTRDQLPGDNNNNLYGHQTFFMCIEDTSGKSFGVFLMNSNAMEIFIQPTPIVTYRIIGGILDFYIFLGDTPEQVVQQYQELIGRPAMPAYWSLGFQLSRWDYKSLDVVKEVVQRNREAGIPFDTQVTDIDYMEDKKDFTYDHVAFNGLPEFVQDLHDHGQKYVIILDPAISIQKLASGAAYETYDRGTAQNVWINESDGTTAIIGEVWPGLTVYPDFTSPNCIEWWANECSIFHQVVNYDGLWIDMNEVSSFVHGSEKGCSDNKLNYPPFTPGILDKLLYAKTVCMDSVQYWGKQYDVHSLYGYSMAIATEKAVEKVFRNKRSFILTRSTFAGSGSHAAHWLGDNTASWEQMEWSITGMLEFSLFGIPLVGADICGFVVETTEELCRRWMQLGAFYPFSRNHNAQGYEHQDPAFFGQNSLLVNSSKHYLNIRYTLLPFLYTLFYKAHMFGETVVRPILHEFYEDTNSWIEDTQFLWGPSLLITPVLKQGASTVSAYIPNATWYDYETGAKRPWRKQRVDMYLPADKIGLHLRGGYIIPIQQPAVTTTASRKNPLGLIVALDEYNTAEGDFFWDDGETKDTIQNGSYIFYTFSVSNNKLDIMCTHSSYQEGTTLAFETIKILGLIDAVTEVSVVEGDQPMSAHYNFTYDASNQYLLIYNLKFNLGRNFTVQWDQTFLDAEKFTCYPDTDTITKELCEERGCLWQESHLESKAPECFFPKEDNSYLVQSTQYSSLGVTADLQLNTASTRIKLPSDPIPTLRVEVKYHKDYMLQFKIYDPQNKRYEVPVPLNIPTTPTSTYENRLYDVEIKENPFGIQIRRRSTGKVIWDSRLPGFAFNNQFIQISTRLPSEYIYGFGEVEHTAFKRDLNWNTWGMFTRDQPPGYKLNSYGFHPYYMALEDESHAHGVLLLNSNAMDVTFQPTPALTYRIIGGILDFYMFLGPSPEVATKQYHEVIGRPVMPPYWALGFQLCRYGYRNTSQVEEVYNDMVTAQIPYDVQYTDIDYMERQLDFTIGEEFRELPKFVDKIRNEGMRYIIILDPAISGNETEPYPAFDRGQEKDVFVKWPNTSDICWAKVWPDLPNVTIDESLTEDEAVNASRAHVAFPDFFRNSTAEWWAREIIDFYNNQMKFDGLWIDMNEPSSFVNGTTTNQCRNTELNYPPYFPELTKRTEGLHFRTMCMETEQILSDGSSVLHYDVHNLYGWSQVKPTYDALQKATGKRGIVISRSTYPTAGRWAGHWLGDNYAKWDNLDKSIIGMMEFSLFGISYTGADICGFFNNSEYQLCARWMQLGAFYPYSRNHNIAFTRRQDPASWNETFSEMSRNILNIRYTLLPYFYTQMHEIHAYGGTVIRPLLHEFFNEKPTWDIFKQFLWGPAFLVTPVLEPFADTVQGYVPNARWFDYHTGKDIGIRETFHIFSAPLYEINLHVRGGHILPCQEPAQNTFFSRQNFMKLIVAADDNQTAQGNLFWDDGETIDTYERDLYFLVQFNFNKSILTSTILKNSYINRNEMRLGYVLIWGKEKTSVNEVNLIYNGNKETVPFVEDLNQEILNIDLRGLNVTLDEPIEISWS

Take `OC[C@H]1NC[C@H](O)[C@@H](O)[C@@H]1O` [Example 34, 1-desoxynojirimycin]: in assay [1], the specific saccharase-inhibitory activity is 540,000 SIU/g.
As to `OC[C@H]1NC(O)[C@H](O)[C@@H](O)[C@@H]1O` (some centres unmarked) [nojirimycin], the “inhibition of microbial α-glucosidases” value in the assay with microbial α-glucosidases is listed as “inhibits”.
